Patent US10413535B2, “Pharmaceutical compositions comprising an integrin ALPHA4 antagonist for use in treating ocular inflammatory conditions” (AXEROVISION, INC., priority 2015, dated 2019)
Like-named read-outs stand apart in the source and are kept apart here.

What was measured:
[1] = Toxicokinetics in 13-week topical ocular rabbit study; conditions: New Zealand White, in vivo, topical or ocular
Procedure: GW559090A was given to New Zealand White Rabbits by topical ocular administration for 13 weeks. Animals were dosed six or twelve times per day, with one hour between doses. Treatment groups were: (1) vehicle (12 times a day), (2) 30 mg/mL/occasion given six times a day, (3) 50 mg/mL/occasion given six times a day, or (4) 50 mg/mL/occasion, given 12 times a day.
GW559090A was formulated as a stock solution in 25 mM phosphate buffer with 0.5% sodium chloride to provide a 50 mg/mL stock solution, which was used for administration to Groups 3 or 4, or further diluted with 25 mM phosphate buffer with 0.75% sodium chloride to provide a 30 mg/mL solution for administration to Group 2. Control animals were treated with the vehicle for 50 mg/mL solution (25 mM phosphate buffer with 0.5% sodium chloride).
During the 13 week treatment period rabbits received daily topical ocular doses of GW559090A or vehicle at a constant dose volume of 0.06 mL (given 6 or 12 times a day, with one hour between doses). The test article formulation or vehicle was carefully dropped into the partially everted lower eyelid of the right eye from a suitable distance, to prevent contact of the positive displacement pipette with the eye. The lower and upper lids were then gently held together for approximately five seconds, to prevent loss of dose and aid even distribution across the external ocular surface. The un-dosed eye was not manipulated at any time and served as a within animal untreated control site.

[2] = biological target: T1, α4β1-CS-1 (Homo sapiens, UniProt P05556+P13612); assay: CS-1 cell adhesion assay, Jurkat J6 cells; type: cell-based; conditions: J6 cells to CS-1; read-out: Inhibition of cell adhesion (IC50)
T1 construct: characterized in human J6 cells which express VLA-4; endogenous in cells; host or cells: Jurkat J6 cells (human lymphoblast cell line)
Procedure: Jurkat J6 cells (human lymphoblast cell line) were grown as a suspension culture in RPMI 1640 supplemented with FCS (10%) and glutamine (2 mM). RPMI8866 cells (human B lymphoid cell line) were grown as a suspension culture in RPMI 1640 supplemented with FCS (10%) and glutamine (2 mM). RBL-2H3 cells (rat basophilic cell line) were cultured in Eagle's MEM plus Earles salts supplemented with 2 mM L-glutamine, 1 mM sodium pyruvate, 1× non-essential amino acids, 1 mM Na pyruvate 10% heat inactivated foetal calf serum.
Polystyrene 96-well microtitre plates were coated with CS-1 (connecting segment 1, a cell attachment domain of fibronectin) at a concentration of 0.01 mg/mL in bicarbonate buffer overnight at 4° C. The solution was aspirated and the plates washed twice with PBS. The plates were then incubated at room temperature in the presence of 3% BSA for 60 min, ‘flicked’ to expel the BSA and washed twice in bicarbonate buffer. J6 or RPMI cells (as required) were labelled with the fluorescent dye BCECF-AM (10 μM and 6×10^6 cells/mL) for 10 min at 37° C. before the excess was removed by centrifugation at 500 g for 5 min and the cells resuspended at a cell concentration of 1.2×10^7 cells/mL in HBSS. Equal volumes of HBSS containing the compound of formula I (over concentration range 19.0 pM to 5 μM) and cells were added to the CS-1 coated plates. […] The plates were counted in a Wallac Viktor.

[3] = female, 30 mg/mL/occasion, female rabbits, 30 mg/mL, 6 daily doses, Day 1, after the first daily dose
[4] = female, 30 mg/mL/occasion, female rabbits, 30 mg/mL, 6 daily doses, Week 4, after the first daily dose
[5] = female, 30 mg/mL/occasion, female rabbits, 30 mg/mL, 6 daily doses, Week 13, after the first daily dose
[6] = female, 50 mg/mL/occasion, female rabbits, 50 mg/mL, 6 daily doses, Day 1, after the first daily dose
[7] = female, 50 mg/mL/occasion, female rabbits, 50 mg/mL, 6 daily doses, Week 4, after the first daily dose
[8] = female, 50 mg/mL/occasion, female rabbits, 50 mg/mL, 6 daily doses, Week 13, after the first daily dose
[9] = female, 50 mg/mL/occasion, female rabbits, 50 mg/mL, 12 daily doses, Day 1, after the first daily dose
[10] = female, 50 mg/mL/occasion, female rabbits, 50 mg/mL, 12 daily doses, Week 4, after the first daily dose
[11] = female, 50 mg/mL/occasion, female rabbits, 50 mg/mL, 12 daily doses, Week 14, after the first daily dose
[12] = male, 30 mg/mL/occasion, male rabbits, 30 mg/mL, 6 daily doses, Day 1, after the first daily dose
[13] = male, 30 mg/mL/occasion, male rabbits, 30 mg/mL, 6 daily doses, Week 4, after the first daily dose
[14] = male, 30 mg/mL/occasion, male rabbits, 30 mg/mL, 6 daily doses, Week 13, after the first daily dose
[15] = male, 50 mg/mL/occasion, male rabbits, 50 mg/mL, 6 daily doses, Day 1, after the first daily dose
[16] = male, 50 mg/mL/occasion, male rabbits, 50 mg/mL, 6 daily doses, Week 4, after the first daily dose
[17] = male, 50 mg/mL/occasion, male rabbits, 50 mg/mL, 6 daily doses, Week 13, after the first daily dose
[18] = male, 50 mg/mL/occasion, male rabbits, 50 mg/mL, 12 daily doses, Day 1, after the first daily dose
[19] = male, 50 mg/mL/occasion, male rabbits, 50 mg/mL, 12 daily doses, Week 4, after the first daily dose
[20] = male, 50 mg/mL/occasion, male rabbits, 50 mg/mL, 12 daily doses, Week 14, after the first daily dose

T1 sequence (P13612 34-1032): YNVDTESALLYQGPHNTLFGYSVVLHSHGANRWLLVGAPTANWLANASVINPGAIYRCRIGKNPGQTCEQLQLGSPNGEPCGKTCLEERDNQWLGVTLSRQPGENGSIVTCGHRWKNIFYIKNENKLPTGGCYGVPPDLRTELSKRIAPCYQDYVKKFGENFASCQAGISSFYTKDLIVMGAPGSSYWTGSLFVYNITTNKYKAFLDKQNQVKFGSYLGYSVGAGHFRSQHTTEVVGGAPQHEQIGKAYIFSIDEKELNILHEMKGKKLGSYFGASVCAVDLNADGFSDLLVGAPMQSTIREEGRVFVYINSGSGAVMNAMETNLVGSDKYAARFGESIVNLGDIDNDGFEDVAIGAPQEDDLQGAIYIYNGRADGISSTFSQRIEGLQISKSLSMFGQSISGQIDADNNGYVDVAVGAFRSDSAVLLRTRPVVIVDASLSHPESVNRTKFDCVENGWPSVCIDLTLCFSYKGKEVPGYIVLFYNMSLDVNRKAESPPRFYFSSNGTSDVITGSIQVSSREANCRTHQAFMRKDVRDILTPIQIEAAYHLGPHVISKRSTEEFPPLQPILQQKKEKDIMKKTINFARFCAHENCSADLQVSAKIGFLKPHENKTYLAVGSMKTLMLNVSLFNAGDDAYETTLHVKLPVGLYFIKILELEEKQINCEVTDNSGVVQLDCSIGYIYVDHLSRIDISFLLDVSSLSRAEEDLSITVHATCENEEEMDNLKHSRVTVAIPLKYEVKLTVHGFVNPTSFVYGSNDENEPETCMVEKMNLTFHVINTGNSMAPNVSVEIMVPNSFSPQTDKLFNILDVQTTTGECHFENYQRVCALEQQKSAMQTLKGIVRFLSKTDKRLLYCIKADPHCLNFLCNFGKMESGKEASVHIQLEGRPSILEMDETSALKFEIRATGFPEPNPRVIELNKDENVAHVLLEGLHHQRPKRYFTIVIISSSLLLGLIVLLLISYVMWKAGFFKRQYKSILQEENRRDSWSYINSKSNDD
T1 sequence (P05556 21-798): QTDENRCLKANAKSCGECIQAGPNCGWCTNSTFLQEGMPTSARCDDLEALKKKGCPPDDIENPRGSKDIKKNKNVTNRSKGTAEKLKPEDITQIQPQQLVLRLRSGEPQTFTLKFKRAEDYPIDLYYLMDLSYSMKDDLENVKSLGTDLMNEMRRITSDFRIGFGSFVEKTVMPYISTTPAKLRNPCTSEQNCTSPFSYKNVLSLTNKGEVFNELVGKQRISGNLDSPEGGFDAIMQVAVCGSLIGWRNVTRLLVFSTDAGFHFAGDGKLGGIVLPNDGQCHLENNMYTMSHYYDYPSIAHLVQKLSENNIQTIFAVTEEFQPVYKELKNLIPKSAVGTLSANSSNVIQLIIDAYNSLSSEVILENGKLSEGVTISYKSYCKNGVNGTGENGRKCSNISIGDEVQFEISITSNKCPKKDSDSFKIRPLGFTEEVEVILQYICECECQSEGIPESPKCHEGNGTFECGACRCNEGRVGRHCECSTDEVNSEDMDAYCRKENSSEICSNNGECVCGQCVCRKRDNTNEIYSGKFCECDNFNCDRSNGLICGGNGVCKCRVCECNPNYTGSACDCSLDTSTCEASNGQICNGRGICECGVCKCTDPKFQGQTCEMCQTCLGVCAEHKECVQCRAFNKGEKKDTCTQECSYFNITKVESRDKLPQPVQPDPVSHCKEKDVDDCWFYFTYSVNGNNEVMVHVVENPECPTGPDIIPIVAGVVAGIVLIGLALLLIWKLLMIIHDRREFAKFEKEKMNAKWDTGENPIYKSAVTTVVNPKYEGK

Question: Which results are given for `Cc1ccccc1OCC(=O)N[C@@H](CC(C)C)C(=O)N[C@@H](Cc1ccc(OC(=O)N2CCC(C(N)=O)CC2)cc1)C(=O)O` [GW559090, (2S)-3-[4-({[4-(Aminocarbonyl)-1-piperidinyl]carbonyl}oxy)phenyl]-2-[((2S)-4-methyl-2-{[2-(2-methylphenoxy)acetyl]amino}pentanoyl)amino]propanoic acid]?
Answer: Cmax [1, 3]: 16 ng/mL; Tmax [1, 3]: 4.98 min; AUC(0-t) ([1]; female, 30 mg/mL/occasion, female rabbits, 30 mg/mL, 6 daily doses, Day 1, read-out: AUC0-1): 4.19 ng·h/mL; AUC(0-t) ([1]; female, 30 mg/mL/occasion, female rabbits, 30 mg/mL, 6 daily doses, Day 1, read-out: AUC0-24): 25.1 ng·h/mL; Cmax [1, 4]: 32.4 ng/mL; Tmax [1, 4]: 4.98 min; AUC(0-t) ([1]; female, 30 mg/mL/occasion, female rabbits, 30 mg/mL, 6 daily doses, Week 4, read-out: AUC0-1): 10.6 ng·h/mL; AUC(0-t) ([1]; female, 30 mg/mL/occasion, female rabbits, 30 mg/mL, 6 daily doses, Week 4, read-out: AUC0-24): 63.6 ng·h/mL; Cmax [1, 5]: 23.5 ng/mL; Tmax [1, 5]: 15 min; AUC(0-t) ([1]; female, 30 mg/mL/occasion, female rabbits, 30 mg/mL, 6 daily doses, Week 13, read-out: AUC0-1): 9.83 ng·h/mL; AUC(0-t) ([1]; female, 30 mg/mL/occasion, female rabbits, 30 mg/mL, 6 daily doses, Week 13, read-out: AUC0-24): 59 ng·h/mL; Cmax [1, 6]: 67.8 ng/mL; Tmax [1, 6]: 4.98 min; AUC(0-t) ([1]; female, 50 mg/mL/occasion, female rabbits, 50 mg/mL, 6 daily doses, Day 1, read-out: AUC0-1): 11 ng·h/mL; AUC(0-t) ([1]; female, 50 mg/mL/occasion, female rabbits, 50 mg/mL, 6 daily doses, Day 1, read-out: AUC0-24): 66 ng·h/mL; Cmax [1, 7]: 44.4 ng/mL; Tmax [1, 7]: 4.98 min; AUC(0-t) ([1]; female, 50 mg/mL/occasion, female rabbits, 50 mg/mL, 6 daily doses, Week 4, read-out: AUC0-1): 12.6 ng·h/mL; AUC(0-t) ([1]; female, 50 mg/mL/occasion, female rabbits, 50 mg/mL, 6 daily doses, Week 4, read-out: AUC0-24): 75.6 ng·h/mL; Cmax [1, 8]: 49.7 ng/mL; Tmax [1, 8]: 4.98 min; AUC(0-t) ([1]; female, 50 mg/mL/occasion, female rabbits, 50 mg/mL, 6 daily doses, Week 13, read-out: AUC0-1): 15.7 ng·h/mL; AUC(0-t) ([1]; female, 50 mg/mL/occasion, female rabbits, 50 mg/mL, 6 daily doses, Week 13, read-out: AUC0-24): 94.2 ng·h/mL; Cmax [1, 9]: 30.6 ng/mL; Tmax [1, 9]: 4.98 min; AUC(0-t) ([1]; female, 50 mg/mL/occasion, female rabbits, 50 mg/mL, 12 daily doses, Day 1, read-out: AUC0-1): 7.3 ng·h/mL; AUC(0-t) ([1]; female, 50 mg/mL/occasion, female rabbits, 50 mg/mL, 12 daily doses, Day 1, read-out: AUC0-24): 87.6 ng·h/mL; Cmax [1, 10]: 56.6 ng/mL; Tmax [1, 10]: 4.98 min; AUC(0-t) ([1]; female, 50 mg/mL/occasion, female rabbits, 50 mg/mL, 12 daily doses, Week 4, read-out: AUC0-1): 13.1 ng·h/mL; AUC(0-t) ([1]; female, 50 mg/mL/occasion, female rabbits, 50 mg/mL, 12 daily doses, Week 4, read-out: AUC0-24): 157 ng·h/mL; Cmax [1, 11]: 68 ng/mL; Tmax [1, 11]: 4.98 min; AUC(0-t) ([1]; female, 50 mg/mL/occasion, female rabbits, 50 mg/mL, 12 daily doses, Week 14, read-out: AUC0-1): 35.5 ng·h/mL; AUC(0-t) ([1]; female, 50 mg/mL/occasion, female rabbits, 50 mg/mL, 12 daily doses, Week 14, read-out: AUC0-24): 426 ng·h/mL; Cmax [1, 12]: 30.8 ng/mL; Tmax [1, 12]: 4.98 min; AUC(0-t) ([1]; male, 30 mg/mL/occasion, male rabbits, 30 mg/mL, 6 daily doses, Day 1, read-out: AUC0-1): 7.86 ng·h/mL; AUC(0-t) ([1]; male, 30 mg/mL/occasion, male rabbits, 30 mg/mL, 6 daily doses, Day 1, read-out: AUC0-24): 47.2 ng·h/mL; Cmax [1, 13]: 51.4 ng/mL; Tmax [1, 13]: 4.98 min; AUC(0-t) ([1]; male, 30 mg/mL/occasion, male rabbits, 30 mg/mL, 6 daily doses, Week 4, read-out: AUC0-1): 9.23 ng·h/mL; AUC(0-t) ([1]; male, 30 mg/mL/occasion, male rabbits, 30 mg/mL, 6 daily doses, Week 4, read-out: AUC0-24): 55.4 ng·h/mL; Cmax [1, 14]: 11.8 ng/mL; Tmax [1, 14]: 4.98 min; AUC(0-t) ([1]; male, 30 mg/mL/occasion, male rabbits, 30 mg/mL, 6 daily doses, Week 13, read-out: AUC0-1): 9.1 ng·h/mL; AUC(0-t) ([1]; male, 30 mg/mL/occasion, male rabbits, 30 mg/mL, 6 daily doses, Week 13, read-out: AUC0-24): 54.6 ng·h/mL; Cmax [1, 15]: 105 ng/mL; Tmax [1, 15]: 4.98 min; AUC(0-t) ([1]; male, 50 mg/mL/occasion, male rabbits, 50 mg/mL, 6 daily doses, Day 1, read-out: AUC0-1): 14.4 ng·h/mL; AUC(0-t) ([1]; male, 50 mg/mL/occasion, male rabbits, 50 mg/mL, 6 daily doses, Day 1, read-out: AUC0-24): 86.4 ng·h/mL; Cmax [1, 16]: 80.4 ng/mL; Tmax [1, 16]: 4.98 min; AUC(0-t) ([1]; male, 50 mg/mL/occasion, male rabbits, 50 mg/mL, 6 daily doses, Week 4, read-out: AUC0-1): 17.9 ng·h/mL; AUC(0-t) ([1]; male, 50 mg/mL/occasion, male rabbits, 50 mg/mL, 6 daily doses, Week 4, read-out: AUC0-24): 107 ng·h/mL; Cmax [1, 17]: 32.2 ng/mL; Tmax [1, 17]: 4.98 min; AUC(0-t) ([1]; male, 50 mg/mL/occasion, male rabbits, 50 mg/mL, 6 daily doses, Week 13, read-out: AUC0-1): 17.6 ng·h/mL; AUC(0-t) ([1]; male, 50 mg/mL/occasion, male rabbits, 50 mg/mL, 6 daily doses, Week 13, read-out: AUC0-24): 106 ng·h/mL; Cmax [1, 18]: 66.3 ng/mL; Tmax [1, 18]: 4.98 min; AUC(0-t) ([1]; male, 50 mg/mL/occasion, male rabbits, 50 mg/mL, 12 daily doses, Day 1, read-out: AUC0-1): 12.1 ng·h/mL; AUC(0-t) ([1]; male, 50 mg/mL/occasion, male rabbits, 50 mg/mL, 12 daily doses, Day 1, read-out: AUC0-24): 145 ng·h/mL; Cmax [1, 19]: 41.4 ng/mL; Tmax [1, 19]: 4.98 min; AUC(0-t) ([1]; male, 50 mg/mL/occasion, male rabbits, 50 mg/mL, 12 daily doses, Week 4, read-out: AUC0-1): 11.6 ng·h/mL; AUC(0-t) ([1]; male, 50 mg/mL/occasion, male rabbits, 50 mg/mL, 12 daily doses, Week 4, read-out: AUC0-24): 139 ng·h/mL; Cmax [1, 20]: 38.1 ng/mL; Tmax [1, 20]: 30 min; AUC(0-t) ([1]; male, 50 mg/mL/occasion, male rabbits, 50 mg/mL, 12 daily doses, Week 14, read-out: AUC0-1): 19.6 ng·h/mL; AUC(0-t) ([1]; male, 50 mg/mL/occasion, male rabbits, 50 mg/mL, 12 daily doses, Week 14, read-out: AUC0-24): 235 ng·h/mL; IC50 [2]: 8.04 nM
